# In US10266564B2, “Cationic lipid cordiarimide hybrid compounds and a process for preparation thereof” (COUNCIL OF SCIENTIFIC & INDUSTRIAL RESEARCH, priority 2014, dated 2019):
# “Also recorded” adds a separate entry of the source.
# Assays:
# [1] = target: T1, ligase IIIβ (Homo sapiens, UniProt P49916); assay: Ligation assay, DNA ligase IIIβ; type: biochemical
# T1 sequence (P49916 43-949 isoform P49916-2 limits assumed): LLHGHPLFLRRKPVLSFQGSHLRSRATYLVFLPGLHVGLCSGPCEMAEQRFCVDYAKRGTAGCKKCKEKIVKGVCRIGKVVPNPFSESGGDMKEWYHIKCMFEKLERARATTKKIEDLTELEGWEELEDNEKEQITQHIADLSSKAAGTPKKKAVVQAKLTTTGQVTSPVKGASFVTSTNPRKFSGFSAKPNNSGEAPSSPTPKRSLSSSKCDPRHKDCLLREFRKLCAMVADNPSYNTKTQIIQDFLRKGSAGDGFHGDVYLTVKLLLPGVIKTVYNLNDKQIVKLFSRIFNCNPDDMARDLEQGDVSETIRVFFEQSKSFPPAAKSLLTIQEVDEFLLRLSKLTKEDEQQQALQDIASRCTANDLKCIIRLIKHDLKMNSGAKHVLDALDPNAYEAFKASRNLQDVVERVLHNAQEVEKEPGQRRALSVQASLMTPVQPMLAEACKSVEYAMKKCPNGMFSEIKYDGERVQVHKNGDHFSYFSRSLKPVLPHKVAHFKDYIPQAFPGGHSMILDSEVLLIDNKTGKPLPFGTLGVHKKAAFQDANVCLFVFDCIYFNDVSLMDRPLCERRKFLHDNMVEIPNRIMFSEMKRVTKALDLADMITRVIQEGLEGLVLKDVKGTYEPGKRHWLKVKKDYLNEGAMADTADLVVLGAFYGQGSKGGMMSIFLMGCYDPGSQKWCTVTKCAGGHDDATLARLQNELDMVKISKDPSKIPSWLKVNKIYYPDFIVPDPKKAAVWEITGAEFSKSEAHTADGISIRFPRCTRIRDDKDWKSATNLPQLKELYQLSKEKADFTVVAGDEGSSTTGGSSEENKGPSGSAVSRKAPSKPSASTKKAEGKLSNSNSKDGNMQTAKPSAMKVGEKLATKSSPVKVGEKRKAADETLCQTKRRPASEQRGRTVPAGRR
# Excerpt: (§1) The ligation assay was done strictly following the assay protocol described in Xi Chen et. al, Cancer Res 2008; 68(9):3169-3177. The DNA molecules 52 mer (5′-3′), 28-mer (5′-3′) and 34-mer (5′-3′) were used to construct a double stranded nicked substrate for the ligase enzyme (FIG. 4). The 34-mer oligo was labelled with 32P-AMP to form a substrate for ligase and to form a ligase-AMP intermediate. During ligation, the ligase would transfer the AMP to the nick forming a phosphodiester bond and seal the nick. The ligated DNA molecule would be larger in size and run higher up on a 7% Urea-containing denaturing acrylamide gel. If an inhibitor is added to the reaction mixture prior to the addition of ligase, this would lead to an inhibition of ligation and a corresponding loss of labelled ligated product in the gel. We would then be able to calculate the percentage of inhibition of ligation by estimating the amount of ligated product in the lane with no inhibitor and comparing it with the lanes containing different inhibitor molecules or with the same inhibitor molecule at different concentrations.
# [2] = test system: HepG2 cells; assay: Cell cycle analysis, PI staining by flow cytometry; type: cell-based, human; conditions: HepG2, 24 h, 5, 10, and 20 mM as printed
# Method: For cell cycle distribution studies after treatment with different molar concentrations of 8i and 8k, HepG2 cells were fixed overnight in 70% ethanol, rehydrated in PBS with ribonuclease A (100 μg/ml) and Triton-X (1%) for 30 min at room temperature then PI (at 50 μg/ml) was added and incubated in the dark for 30 min and analyzed with a flow cytometer. Experiments were repeated two times independently.
# [3] = test system: HepG2, NH/3T3, PC-3, MCF-7 cell lines; assay: MTT assay, summary over the cell line panel; type: cell-based; conditions: across tested cell lines
# Method: (§2) The human cancer cell lines e.g. HepG2 (hepatocellular carcinoma, ATCC® HB-8065™), PC-3 (human prostate cancer cells, ATCC® CRL-1435™), MCF-7 (breast adenocarcinoma, ATCC® […]), and mouse embryo fibroblasts (NIH/3T3, ATCC® CRL-1658™), used in the present study were obtained from the ATCC (American Type Culture Collection, USA and maintained in RPMI 1640 (Roswell Park Memorial Institute, Merck) with 10% FBS (Merck), supplemented with 1% antibiotic and antimycotic solution (Gibco, USA) at 37° C. in a humidified incubator with 5% CO2. All stock solutions of the compounds were prepared in cell culture grade DMSO (dimethyl sulfoxide) and stored at −20° C. Compounds were diluted in culture media prior to use in experiments. Annexin V-FITC apoptosis detection kits were purchased from Calbiochem. MTT dye was procured from Sigma-Aldrich. All the flow cytometry experiments were performed using a FACScan (Becton Dickinson, Mountain View, Calif.) flow cytometer, equipped with a single 488 nm argon laser.
# (§3) Cell viability was assessed by MTT assay, which is based on the reduction of MTT by mitochondrial dehydrogenases of viable cells to form a purple formazan product. Briefly, cells (5-6×10^3/well) were plated in 96 well plates. After incubating overnight, the cells were treated with […] different concentrations (100, 50, 20, 10, 5, 2.5, 1.25 μM) in triplicates with the cationic lipidated cordiarimide and intermediates for 48 h. Subsequently, 10 μL of MTT (10 mg/mL) was added to each well and incubated for 3 h. The MTT formazan formed by viable cells was dissolved in 100 μL of DMSO and shaken for 10 min. The absorbance was measured on an ELISA reader. Each test was repeated at least three times. The concentration of the compound which gives the 50% growth inhibition value corresponding to IC50, was calculated using GraphPad prism 5 software. In the present invention we have screened 26 lipidated cordiarimides and the results are described in table 1.
# [4] = target: T2, T4 DNA ligase (Enterobacteria phage T4, UniProt P00970); assay: Ligation assay, T4 DNA ligase control; type: biochemical; conditions: 5 μM
# T2 sequence (P00970 1-487): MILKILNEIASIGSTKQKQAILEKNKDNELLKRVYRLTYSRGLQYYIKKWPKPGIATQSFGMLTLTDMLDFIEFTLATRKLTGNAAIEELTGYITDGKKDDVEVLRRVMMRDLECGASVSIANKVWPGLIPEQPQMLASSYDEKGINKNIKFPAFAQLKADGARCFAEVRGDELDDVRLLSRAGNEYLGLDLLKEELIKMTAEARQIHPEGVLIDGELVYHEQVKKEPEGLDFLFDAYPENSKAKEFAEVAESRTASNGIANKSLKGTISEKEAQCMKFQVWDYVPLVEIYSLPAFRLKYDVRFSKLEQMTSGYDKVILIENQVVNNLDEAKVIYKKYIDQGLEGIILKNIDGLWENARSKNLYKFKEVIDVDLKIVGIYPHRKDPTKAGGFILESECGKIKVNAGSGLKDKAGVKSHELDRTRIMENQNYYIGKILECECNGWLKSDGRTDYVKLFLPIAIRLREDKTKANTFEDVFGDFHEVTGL
# Excerpt: as §1
# [5] = test system: MCF-7 (breast adenocarcinoma); assay: MTT assay for cell viability, MCF-7; type: cell-based, human
# Method: as §2, §3
smiles,measurement,setting,value
"CCCCCCCCCCCC[N+](C)(CCCCCCCCCCCC)CC(=O)NC1CCC(=O)N(CC(=O)c2ccccc2)C1=O (stereo not shown) [Compound 8k, {[2,6-Dioxo-1-(2-oxo-2-phenyl-ethyl)-piperidin-3-ylcarbamoyl]-methyl}-Didodecyl-methyl-ammonium iodide]",inhibition at 5 µM,[1]; 5 μM,< 50%
same,ligase III inhibition,[1]; at concentrations that kill HepG2 cells,30%
same,effect on cell cycle progression,[2],significant accumulation of cells in G0/G1 phase; also recorded: blocked the cell cycle in G0/G1 phase
same,antiproliferative / anticancer activity (in words),[3],selective anti-proliferative activity at lower concentrations
same,inhibition of T4 ligase,[4],No appreciable inhibition
same,IC50,[5]; 48 h,> 20 µM
same,IC50,"[5]; Homo sapiens, MCF7, 48 h",26.3 µM
